The melting point is the temperature of the solid-liquid transition.

In turn, `O=C(O)c1cccnc1N1CCc2ccccc2C1` showed a melting point of 150 to 152 °C.
Regarding `CCCC(=O)c1cnc2ccc(COCc3ccccc3)cc2c1Cl`, the melting point is 85 to 86 °C.
As to `O=C(O)[C@H](Cc1ccccc1)Nc1c(NCc2cccnc2)c(=O)c1=O`, the melting point was 259 to 261 °C.
In turn, `O=C(NCCCCCCCNC(=O)c1ccc(OC2CCCC2)cc1)c1ccc(OC2CCCC2)cc1` displayed a melting point of 153 to 154 °C.
Consider `N#CNc1ccccc1-c1ccccc1`, for which the melting point fell in the range of 85 to 87 °C.
The molecule `Cc1cc(C(=N)NO)cc(C)c1OCCCc1ccco1` displayed a melting point of 100 to 101 °C.
The molecule `CCCCCCCCCCCC(O)CC(=O)C(CCCCCC)C(=O)OC` (stereo not given) registered a melting point of 38 to 39 °C.
Under `CCOC(=O)C1=C(C)NC(CSc2ccccc2)=C(C(=O)OCC)C1c1cccc([N+](=O)[O-])c1` (stereo not given) stands 92 to 94 °C; under `COc1ccc(C(=CF)C(N)C(=O)O)cc1O` (stereo not given), 214 °C.
As to `COc1cc(C)cc(C(=O)NC(C)P(=O)(O)O)c1C1=CC(=O)c2c(O)cccc2C1=O` (stereo not given), the melting point is greater than 300 °C.
In turn, `CN(C)C(=O)c1ccccc1CS(N)(=O)=O` returned a melting point of 149 to 154 °C.
Under `Cc1ccc2c(c1)C(C(=O)Nc1ccccc1)c1ccccc1CO2` (stereo not given) stands 129 to 130 °C; under `Cc1cccc(-c2cccc(OC3SCC(O)C(O)C3O)c2)n1` (stereo not given), 143 °C; under `CSc1noc(C2CC2)c1C(=O)c1ccc(C(F)(F)F)cc1S(C)(=O)=O`, 145 to 146 °C.
Regarding `CCCCC[C@H]1CC[C@H](CCCCc2ccc(C#N)cc2)CC1`, the melting point amounted to 51 °C.
On to `COc1cc2cc(CO)c(CO)c(-c3ccnc(NN)c3)c2cc1OC`, for which the melting point was 214 to 220 °C.
`CCc1cc(OCc2ccccc2)cc(C(=O)O)c1C(=O)OC` showed a melting point of 135 to 136 °C.
In turn, `Clc1cnc2ccc(Cl)c(Cl)c2n1` returned a melting point of 118 to 119 °C.
`COC(=O)c1sc2c(c1O)CCC2`: the melting point lay within 73 to 75 °C.
The molecule `NCCCCCCCNC(=O)OCc1ccccc1` came in with a melting point of 78 to 80 °C.
Consider `COc1nc2c(N)nc3ccccc3c2n1Cc1ccccc1`, for which the melting point is 240 to 242 °C.
As to `CCOC(=O)CCCCCOc1ccc(-c2nc(=O)c3ccccc3s2)cn1`, the melting point fell in the range of 73.6 to 73.9 °C.
In turn, `C=C(C)C(=O)OCCc1ccc(-c2ccc(OC(=O)C(=C)C)cc2)cc1` displayed a melting point of 108 °C.
Consider `O=C(O)c1ccc(NCCCCCCCCCCCc2ccccc2)cc1`, for which the melting point lay within 50 to 52 °C.
Under `Clc1nc2ccnn2c2ncccc12` stands 160 °C; under `O=C1Nc2ccccc2N2CCN(Cc3ccncc3)CC12` (stereo not given), 253 to 255 °C.
On to `O=C(CCl)Nc1ccc(C(O)(C(F)(F)F)C(F)(F)F)cc1O`, for which the melting point fell in the range of 218 to 219 °C.
Regarding `O=C1N(Cc2ccc(C(F)(F)F)o2)c2ccccc2C12COc1cc(OC(F)(F)F)ccc12` (stereo not given), the melting point is 78 to 80 °C.
The result for `O=C(O)CCCCCCCCCN1C(=O)c2ccccc2C1=O` reads 58 to 60 °C; that for `O=C=Nc1c(Cl)c(Cl)c(Cl)c(Cl)c1Cl`, 100 to 102 °C.
The molecule `Cc1cc(F)c(NS(=O)(=O)c2ccccc2)cc1NS(=O)(=O)c1ccccc1` returned a melting point of 146 °C.
`CCOCc1nc(C(=O)OCC)c(C(=O)OCC)[nH]1`: the melting point is 60 to 61 °C.
Take `CN(C)Cc1cccc(OCCCNc2nc(N)nn2C)c1`: the melting point lay within 95 to 96.5 °C.
`CS(=O)(=O)Nn1c(=O)[nH]c2cc([N+](=O)[O-])c(-n3ccnc3)cc2c1=O`: the melting point is greater than 270 °C.
Consider `Cn1c(SCc2ccccc2)nc2c(c1=O)NCN2C(c1ccccc1)(c1ccccc1)c1ccccc1`, for which the melting point lay within 255 to 258 °C.
Molecule `O=C(O)[C@H](Cc1ccc(OCc2ccccc2)cc1)NS(=O)(=O)c1ccc(F)cc1` showed a melting point of 138 to 139 °C.
Molecule `C[C@@H]1NC(=O)O[C@H]1c1ccc(C(C)(C)C)cc1` came in with a melting point of 199 to 200 °C.
Consider `CCOC(=O)/C=C/c1c(-c2ccccc2)c2cc(C)c(C)cc2c(=O)n1C`, for which the melting point fell in the range of 143 to 145 °C.
For the molecule `O=C(C#Cc1ccc(CCN2CCCC2)cc1)Nc1ccc(-c2ccccc2)cc1`, the melting point was 180 to 189 °C.
`CC(=O)N(C)[C@H]1CCN(C(=O)c2ccc(-c3[nH]nc4c3C(=O)c3c(NC(=O)NN5CCOCC5)cccc3-4)s2)C1` came in with a melting point greater than 300 °C.
Take `NC(=O)CNC(=O)c1cccc(-c2cccc3cc(Cc4cccc(C(F)(F)F)c4)sc23)c1F`: the melting point was in the range of 135 to 136 °C.
Under `CCOC(=O)C1=Cc2cc(-c3ccc(OCC)cc3)ccc2OCC1` stands 124 to 127 °C; under `Cc1oc2ccc(O)cc2c(=O)c1Cc1cccc(NS(=O)(=O)C(F)(F)F)c1`, 232 to 234 °C; under `CC(=O)Oc1ccc2c(c1)C(=O)NC(C(Cl)(Cl)Cl)O2` (stereo not given), 201 to 203 °C.
For `O=C(O)CCCCC1SCc2[nH]c(=O)[nH]c21` (single isomer, unassigned; (-)), the melting point lay within 189 to 199 °C.
Molecule `O=C1NCCN1S(=O)(=O)N1CCCCC1` displayed a melting point of 201 °C.
As to `Cc1c(F)cc(C(=O)O)c(Cl)c1Cl`, the melting point fell in the range of 179 to 180 °C.
Regarding `CSc1cc2c(cc1C(F)(F)F)N(C(=O)Nc1cccc(OCCCN(C)C)c1)CC2`, the melting point fell in the range of 149 to 151 °C.
As for `O=C1c2ccc(Cl)cc2C(O)N1CCO[N+](=O)[O-]` (stereo not given), the melting point lay within 116 to 118 °C.
The result for `C=CCSc1nc(O)ns1` reads 84 °C; that for `N#Cc1cc(C2=NOC(c3cc(Cl)cc(Cl)c3)(C(F)(F)F)C2)ccc1-n1cccn1` (stereo not given), 169 to 176 °C.
Molecule `COc1ccc2c(c1)CC(CC(C)=O)C2=O` (racemic) registered a melting point of 73 °C.
With `CCCCN(CCCC)C(=O)CC1C(=O)N(c2ccc(Cl)cc2)C(=O)N1c1ccc(Cl)cc1` (stereo not given), the melting point was determined as 124 °C.
The result for `COC(=O)C(C(C)=O)C(c1cccc([N+](=O)[O-])c1)C(C(C)=O)C(=O)OC` (stereo not given) reads 94 to 96 °C; that for `OC1C2C=CC1C1N=NC21` (stereo not given), 128 °C; that for `Cc1ccc(N2CCN(c3c(C)c(C)c4c(c3C)CC(C)(C)O4)CC2)cc1Cl`, 146 to 148 °C.
The molecule `Brc1ccc2nc(-c3cccnc3)nn2c1` had a melting point of 176 °C.
In turn, `CCCN(CCC)Cc1nc(-c2ncn3c2[C@@H]2CCN2C(=O)c2c(Cl)cccc2-3)no1` returned a melting point of 147 to 153 °C.
The molecule `C=CCOC(=O)C1=C(C)NC(C)=C(C(=O)OC)C1c1cccc([N+](=O)[O-])c1` (single isomer, unassigned; (-)) showed a melting point of 215 to 217 °C.
Regarding `CCCCc1ncc(/C=C(\Cc2cccs2)C(=O)O)n1Cc1cccc(OC)c1`, the melting point was 170 to 171 °C.
`c1csc(N=C2SC[C@@H]3Cc4ccccc4CN23)c1` showed a melting point of 112 °C.
The result for `N#Cc1cccc(-c2nc3sccn3c2-c2ccnc(N[C@@H]3CCCN(S(=O)(=O)c4ccc(Cl)cc4)C3)n2)c1` reads 144 to 146 °C; that for `Cc1cc(OC/C=C(\c2ccc(C#CCN3CCOCC3)cc2)c2ccc(S(C)=O)cc2)ccc1OCC(=O)O` (stereo not given), 137 to 142 °C; that for `CC(C)(C)OC(=O)N1CCc2c(n(CCO)c3cc(Cl)cc(Cl)c23)CC1`, 166 to 167 °C.
The result for `CCOc1cnc(-c2cc(Cl)c(OC)c3ccccc23)s1` reads 67 to 68 °C.
Molecule `CC(Oc1ccc(Br)cc1)(C(=O)O)c1ccccc1` (stereo not given) registered a melting point of 88 to 89 °C.
Regarding `CNC(Cc1ccccc1NC(=O)C(C)(C)C)c1cccs1` (stereo not given), the melting point was in the range of 78.5 to 82 °C.
`Cc1nc(-c2ccccc2)c(C)c(=O)o1`: the melting point was 68 °C.
Under `CCC/C(=C\C=O)c1ccc2c(c1)C(CC)(CC)OC(=O)N2` stands 173 to 179 °C; under `O=C(NCc1ccc(Cl)cc1)c1nnc2ccc(I)cc2c1O`, 307 to 308 °C; under `CCOC(=O)C(=O)CC(=O)/C=C/c1ccc(Cl)cc1F`, 84 to 85 °C.
As to `O=C(NCCCCCCCCn1ccnc1)c1cc2cc(Cl)ccc2[nH]1`, the melting point was 187 to 189 °C.
For `N#Cc1ncn2c(C(F)(F)F)cc(-c3ccc(OCC(F)(F)F)c(C(F)(F)F)c3)nc12`, the melting point was 189 °C.
The molecule `CCOC(=O)/C=C/c1cccc(C2COc3c(C)c(C)c(NC(=O)CC(C)(C)C)c(C)c32)c1` (stereo not given) displayed a melting point of 199 to 200 °C.
`CC(C)Oc1nn(CCO)cc1C(=O)NCc1ccc(Cl)cc1Cl` yielded a melting point of 122 to 123 °C.
As to `COC(=O)c1oc2ccc(OC)cc2c1OC(C)C`, the melting point lay within 55 to 63 °C.
Take `COC(=O)c1c(Cl)cc(Cl)cc1NC(=O)CSc1ccc(NCc2ccc(Cl)cc2)cc1`: the melting point lay within 96 to 98 °C.
For `CCc1cc2c(cc1CC)C(=O)C(O)=CC2=O`, the melting point was in the range of 105 to 109 °C.
The result for `CCOC(=O)CON(CC)C(=S)Nc1ccc(Cl)cc1C` reads 69 to 71 °C; that for `COc1ccc(C(C)(C)c2cc(C(C)(C)C)cc(-n3nc4ccc(C(F)(F)F)cc4n3)c2O)cc1`, 140 °C.
Take `COc1cc(-c2csc(NCCCCCC(=O)Nc3ccc(C(F)(F)F)cc3)n2)cc([N+](=O)[O-])c1O`: the melting point lay within 160 to 162 °C.
`COc1ccc(C(=O)c2cccc(OCc3nc(-c4ccccc4)oc3C)c2)c(O)c1`: the melting point fell in the range of 117 to 118 °C.
For `O=C(CC(=O)c1ccc(O)cc1O)c1cc(OCc2ccccc2)cc(OCc2ccccc2)c1`, the melting point is 179 to 181 °C.
In turn, `Cn1nc(N)c2sc3c(Cl)cccc3c21` returned a melting point of 239 to 241 °C.
The result for `N#CC1(N)CCOCC1` reads 46 to 47 °C.
In turn, `CC(c1ccccc1)n1ncc(-c2nc(-c3ccco3)n[nH]2)c1N` (stereo not given) returned a melting point of 175 to 176 °C.
`O=c1ccsc2c3ccccc3n(-c3ccccc3[N+](=O)[O-])c12` returned a melting point of 207 to 208 °C.
Molecule `CS(=O)(=O)c1ccc(C(=O)C2C(=O)N(C(N)=O)c3ccc(Cl)cc32)s1` (stereo not given) gave a melting point of 212 to 214 °C.
The molecule `CSc1ccc(-c2n[nH]c(=S)cc2-c2ccc(F)cc2)cc1` displayed a melting point of 219 °C.
Under `CCOCCOc1ccc(COc2cnn(C(C)(C)C)c(=O)c2Cl)cc1` stands 82 to 83 °C.

For the origin of these results see a melting point compilation (Tetko et al.; mined from patent text by program, amines drawn as free bases though some values may be those of a salt).
